Test results: PMC9890698 (BMC Biology, 2023)
“And” between values parts separate entries of the source, which are not always exact repeats. Equal values may be shown once.

Key:
Human P2Y1-R = biological target: T1, Human P2Y1-R (Homo sapiens, UniProt P47900); experiment: β-arrestin 2 recruitment BRET1 assay (β-arrestin 2-RLuc / P2Y1-R-Venus) in HEK293T cells; format: cell-based; conditions: for b-arrestin 2 signaling, Ligand-modulated BRET (% of maximum MRS2179 mean value): Figure 4b, individual replicates
T1 construct: expressed in transfected cells; host or cells: HEK293T/17

[1] = system: washed human platelets (P2Y1-R/Gαq signaling); experiment: IP1 accumulation assay (HTRF) in washed human platelets; format: cell-based; conditions: washed human platelets, ADP 100 μM, antagonists 10 μM, Gq inhibitor 100 nM, 2 h, apyrase 0.02 U/mL, result in words
Method in brief: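 Washed platelets (3.10^6 per well, pH 7.4 Tyrode's with 1 mM CaCl2, pre-rested with apyrase and 10 μM indomethacin) were exposed to compounds for 30 min or 2 h at 37 °C with 50 mM LiCl. IP1 was measured by HTRF competitive immunoassay (665/620 nm ratio) and converted via standard curve.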

[2] = β-Arrestin 2 signaling, Fig. 4b, 15 min

T1 sequence (P47900 whole entry): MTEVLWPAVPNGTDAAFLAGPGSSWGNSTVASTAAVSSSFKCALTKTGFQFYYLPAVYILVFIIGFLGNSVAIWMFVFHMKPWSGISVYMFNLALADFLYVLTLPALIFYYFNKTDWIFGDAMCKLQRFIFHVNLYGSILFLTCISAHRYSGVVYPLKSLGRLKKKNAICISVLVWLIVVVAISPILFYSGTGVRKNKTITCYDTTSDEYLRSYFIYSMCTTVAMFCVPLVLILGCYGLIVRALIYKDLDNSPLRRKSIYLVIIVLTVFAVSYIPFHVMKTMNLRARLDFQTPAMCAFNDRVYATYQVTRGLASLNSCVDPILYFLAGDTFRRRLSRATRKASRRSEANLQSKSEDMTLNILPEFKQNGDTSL

## CNc1nc(I)nc2c1ncn2[C@H]1C[C@H](OP(=O)(O)O)[C@]2(COP(=O)(O)O)C[C@H]12 [MRS2500, 2-iodo-N6-methyl-(N)-methanocarba-2′-deoxyadenosine-3′,5′-bisphosphate]
Human P2Y1-R; [Ligand] 1.00E-04 M
  b-arrestin 2 signaling, Ligand-modulated BRET (% of maximum MRS2179 mean value): -104.002 % of maximum MRS2179 mean value and -94.5729 % of maximum MRS2179 mean value and -88.0915 % of maximum MRS2179 mean value and -87.9506 % of maximum MRS2179 mean value and -95.5776 % of maximum MRS2179 mean value
Human P2Y1-R; [Ligand] 1.00E-05 M
  b-arrestin 2 signaling, Ligand-modulated BRET (% of maximum MRS2179 mean value): -100.008 % of maximum MRS2179 mean value and -86.7675 % of maximum MRS2179 mean value and -90.0217 % of maximum MRS2179 mean value and -77.5434 % of maximum MRS2179 mean value and -80.2036 % of maximum MRS2179 mean value
Human P2Y1-R; [Ligand] 1.00E-06 M
  b-arrestin 2 signaling, Ligand-modulated BRET (% of maximum MRS2179 mean value): -95.5169 % of maximum MRS2179 mean value and -78.4136 % of maximum MRS2179 mean value and -91.3759 % of maximum MRS2179 mean value and -80.0813 % of maximum MRS2179 mean value and -75.5319 % of maximum MRS2179 mean value
Human P2Y1-R; [Ligand] 1.00E-07 M
  b-arrestin 2 signaling, Ligand-modulated BRET (% of maximum MRS2179 mean value): -75.2707 % of maximum MRS2179 mean value and -41.8369 % of maximum MRS2179 mean value and -76.2614 % of maximum MRS2179 mean value and -66.0129 % of maximum MRS2179 mean value and -61.7221 % of maximum MRS2179 mean value
Human P2Y1-R; [Ligand] 1.00E-08 M
  b-arrestin 2 signaling, Ligand-modulated BRET (% of maximum MRS2179 mean value): -7.396 % of maximum MRS2179 mean value and -28.7379 % of maximum MRS2179 mean value and -20.7409 % of maximum MRS2179 mean value and -45.6895 % of maximum MRS2179 mean value and -5.348 % of maximum MRS2179 mean value
Human P2Y1-R; [Ligand] 1.00E-09 M
  b-arrestin 2 signaling, Ligand-modulated BRET (% of maximum MRS2179 mean value): -12.4711 % of maximum MRS2179 mean value and -18.0888 % of maximum MRS2179 mean value and -11.5273 % of maximum MRS2179 mean value and -5.043 % of maximum MRS2179 mean value and 9.479 % of maximum MRS2179 mean value
Human P2Y1-R; [Ligand] 1.00E-10 M
  b-arrestin 2 signaling, Ligand-modulated BRET (% of maximum MRS2179 mean value): -23.8118 % of maximum MRS2179 mean value and -10.0375 % of maximum MRS2179 mean value and -6.745 % of maximum MRS2179 mean value and -2.51 % of maximum MRS2179 mean value and -4.926 % of maximum MRS2179 mean value
Human P2Y1-R; HEK293T cells, high P2Y1-R expression, result in words
  Effect on β-arrestin 2 recruitment / BRET signal between P2Y1-R-Venus and β-arrestin 2-RLuc: behaved as inverse agonists
Human P2Y1-R; compared to MRS2179, from potencies of Table 1
  Signaling bias (β-arrestin 2 versus Gαq protein signaling): biased inverse agonist
Human P2Y1-R; [2]
  EC50: 47.5 nM
  pEC50 ± s.e.m.: 7.323 ± 0.1193
[1]
  Effect on IP1 levels: inverse agonist efficacy
